Laboratory results as given in the supplement of paper PMC10307832.

Tests used:
Experiment in all cases: relative viability (nuclei count vs DMSO), 5 days (fraction); higher = more cells survive
Erlotinib + Bortezomib = compound: C#Cc1cccc(Nc2ncnc3cc(OCCOC)c(OCCOC)cc23)c1 [Erlotinib] + CC(C)C[C@H](NC(=O)[C@H](Cc1ccccc1)NC(=O)c1cnccn1)B(O)O [Bortezomib] (partner 0.002 µM)
Method in brief: (§1)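 Cells from lung cancer lines were seeded into 1536-well plates and, one day later, dosed by pin tool. Treatments were either a single drug or a fixed dose of an anchor drug with five library-drug doses (not always all listed) in √10 steps. After 5 days, nuclei were stained in a one-step fixation (final 0.05% Triton X-100, 1% formaldehyde, 1 ug/ml Hoechst) and counted on 4× images, and relative viability is the treated-to-vehicle nuclei ratio, as the median of duplicate plates.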

Erlotinib + Luminespib = compound: C#Cc1cccc(Nc2ncnc3cc(OCCOC)c(OCCOC)cc23)c1 [Erlotinib] + CCNC(=O)c1noc(-c2cc(C(C)C)c(O)cc2O)c1-c1ccc(CN2CCOCC2)cc1 [Luminespib] (partner 0.01 µM)
Method in brief: as §1

AT9283 + OSI-027 = compound: O=C(Nc1c[nH]nc1-c1nc2ccc(CN3CCOCC3)cc2[nH]1)NC1CC1 [AT9283] + COc1cccc2cc(-c3nc([C@H]4CC[C@H](C(=O)O)CC4)n4ncnc(N)c34)[nH]c12 [OSI-027] (partner 0.5 µM)
Method in brief: as §1

AT9283 + Alpelisib = compound: O=C(Nc1c[nH]nc1-c1nc2ccc(CN3CCOCC3)cc2[nH]1)NC1CC1 [AT9283] + Cc1nc(NC(=O)N2CCC[C@H]2C(N)=O)sc1-c1ccnc(C(C)(C)C(F)(F)F)c1 [Alpelisib] (partner 2 µM)
Method in brief: as §1

AT9283 + Decitabine = compound: O=C(Nc1c[nH]nc1-c1nc2ccc(CN3CCOCC3)cc2[nH]1)NC1CC1 [AT9283] + Nc1ncn([C@H]2C[C@H](O)[C@@H](CO)O2)c(=O)n1 [Decitabine] (partner 2 µM)
Method in brief: as §1

Cell Line	relative viability (Erlotinib + Bortezomib; first compound 0.02 µM)	relative viability (Erlotinib + Bortezomib; first compound 0.2 µM)	relative viability (Erlotinib + Bortezomib; first compound 0.6325 µM)	relative viability (Erlotinib + Bortezomib; first compound 2 µM)	relative viability (Erlotinib + Luminespib; first compound 0.2 µM)	relative viability (Erlotinib + Luminespib; first compound 0.6325 µM)	relative viability (Erlotinib + Luminespib; first compound 2 µM)	relative viability (AT9283 + OSI-027; first compound 0.003 µM)	relative viability (AT9283 + OSI-027; first compound 0.03 µM)	relative viability (AT9283 + OSI-027; first compound 0.09487 µM)	relative viability (AT9283 + OSI-027; first compound 0.3 µM)	relative viability (AT9283 + Alpelisib; first compound 0.003 µM)	relative viability (AT9283 + Alpelisib; first compound 0.03 µM)	relative viability (AT9283 + Alpelisib; first compound 0.09487 µM)	relative viability (AT9283 + Alpelisib; first compound 0.3 µM)	relative viability (AT9283 + Decitabine; first compound 0.003 µM)	relative viability (AT9283 + Decitabine; first compound 0.03 µM)	relative viability (AT9283 + Decitabine; first compound 0.09487 µM)	relative viability (AT9283 + Decitabine; first compound 0.3 µM)	relative viability (Erlotinib + Luminespib; first compound 0.02 µM)
NCI-H1355	1.14	1.1	1.24	0.992	0.597	0.658	0.557	0.399	0.436	0.276	0.221	0.855	0.898	0.443	0.182	0.341	0.357	0.322	0.195	
NCI-H1437	0.482	0.499	0.57	0.393	1.18	1.1	1.03	0.933	0.848	0.669	0.206	0.997	0.88	0.571	0.155	0.47	0.599	0.426	0.306	1.15
NCI-H1651	0.912	0.909	0.918	0.882	0.837	0.817	0.746	0.753	0.714	0.568	0.334	1.01	0.921	0.689	0.399	0.371	0.516	0.428	0.318	0.883
NCI-H1666	0.864	0.74	0.766	0.615	0.941	1.01	0.713	0.782	0.811	0.636	0.483	1.04	0.736	0.363	0.291	0.6	0.589	0.669	0.534	0.969
NCI-H1734	1.1	0.955	1.17	0.961	0.212	0.194	0.197	0.634	0.331	0.237	0.201	0.696	0.497	0.283	0.292	0.54	0.324	0.261	0.254	0.202
NCI-H1755	1.06	1.01	0.957	0.9	0.432	0.536	0.413	0.697	0.72	0.396	0.537	0.996	0.874	0.35	0.381	0.712	0.803	0.67	0.527	0.412
NCI-H1792	0.897	0.958	1.18	0.783	0.319	0.49	0.281	0.727	0.868	0.742	0.404	0.633	0.82	0.565	0.242	0.499	0.56	0.567	0.345	0.42
NCI-H1915	0.982	0.989	1.05	0.992	0.777	0.908	0.725	0.619	0.619	0.239	0.196	1.01	1.06	0.24	0.222	0.247	0.26	0.209	0.168	0.819
NCI-H1975	0.381	0.355	0.451	0.303	0.157	0.169	0.306	0.726	0.706	0.671	0.344	0.637	0.624	0.5	0.247	0.403	0.432	0.398	0.34	0.222
NCI-H1993	1.01	0.698	0.809	0.739	0.611	0.566	0.508	0.545	0.528	0.487	0.486	0.789	0.612	0.552	0.515	0.596	0.453	0.442	0.456	0.812
NCI-H2009	1.06	1.03	1.19	1.01	1.03	1.09	0.944	0.652	0.511	0.182	0.101	1.13	1.05	0.734	0.401	0.378	0.358	0.225	0.222	1.04
NCI-H2023	0.949	0.816	1.14	0.789	0.72	0.81	0.629	0.389	0.456	0.148	0.104	0.634	0.501	0.34	0.131	0.202	0.202	0.127	0.0969	0.721
NCI-H2085	1.04	0.979	0.889	0.766	0.352	0.308	0.339	0.896	0.731	0.553	0.321	0.946	0.894	0.615	0.411	0.615	0.452	0.419	0.378	0.412
NCI-H2087	1	1.12	0.804	0.768	0.15	0.224	0.152	0.637	0.392	0.14	0.134	1.22	0.658	0.259	0.165	0.238	0.214	0.182	0.0988	0.253
NCI-H2126	1.12	1.11	0.964	0.769	0.648	0.589	0.635	0.635	0.808	0.75	0.389	0.722	0.788	0.501	0.323	0.589	0.625	0.439	0.303	0.882
